In US20230301300A1, “HERBICIDAL COMPOSITIONS” (SYNGENTA CROP PROTECTION AG, priority 2020, published 2023):

Legend:
Format in all cases: in vivo
Solanum nigrum (SOLNI) = assay: B1 Post-Emergence Efficacy - Test 1; details: 1000 g/ha, after 13 days, five point scale
Method in brief: (§1)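 Seeds sown in standard soil grow for 8 days under glasshouse conditions (24/16° C., 14 hours light, 65% humidity). Seedlings are then sprayed at 1000 g/ha from an acetone/water (50:50), 0.5% Tween 20 formulation. Damage is rated after 13 days on a five-point scale.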

[1] = tested on: Ipomoea hederacea (IPOHE); assay: B1 Post-Emergence Efficacy - Test 1; details: 1000 g/ha, after 13 days, five point scale
Method in brief: as §1

[2] = tested on: Amaranthus retoflexus (AMARE); assay: B1 Post-Emergence Efficacy - Test 1; details: 1000 g/ha, after 13 days, five point scale
Method in brief: as §1

Lolium perenne (LOLPE) [3] = assay: B1 Post-Emergence Efficacy - Test 1; details: 1000 g/ha, after 13 days, five point scale
Method in brief: as §1

Setaria faberi (SETFA) = assay: B1 Post-Emergence Efficacy - Test 1; details: 1000 g/ha, after 13 days, five point scale
Method in brief: as §1

[4] = tested on: Echinochloa crus-galli (ECHCG); assay: B1 Post-Emergence Efficacy - Test 1; details: 1000 g/ha, after 13 days, five point scale
Method in brief: as §1

Brassica napus (BRSNN) = assay: B2 Post-Emergence Efficacy - Test 2; details: 15 days after application, 0-100 scale
Experimental: (§2) Seeds of a variety of test species (see Table B1) were sown in standard soil in pots. After cultivation for 12 days (post-emergence) under controlled conditions in a glasshouse (at 24/18° C. or 20/16° C., at day/night; 16 hours light; 65% humidity), the plants were sprayed with an aqueous spray solution derived from the formulation of the technical active ingredient dissolved in IF50 (see Table B2 for composition) and adjuvant (Genapol X080) was added to the spray solution at a rate of 0.2% v/v.
(§3) After application, the test plants were grown in a glasshouse under controlled conditions (as above) and watered twice daily. Herbicidal activity was evaluated 15 days after application on a 0-100 scale. The results, where 0=no damage to test plant and 100=total kill of test plant are shown below in Tables 8 to 11.

Sinapis arvensis (SINAR) = assay: B2 Post-Emergence Efficacy - Test 2; details: 15 days after application, 0-100 scale
Experimental: as §2, §3

Veronica persica (VERPE) = assay: B2 Post-Emergence Efficacy - Test 2; details: 15 days after application, 0-100 scale
Experimental: as §2, §3

Kochia scoparia (KSHSC) = assay: B2 Post-Emergence Efficacy - Test 2; details: 15 days after application, 0-100 scale
Experimental: as §2, §3

[5] = tested on: Ipomoea hederacea (IPOHE); assay: B2 Post-Emergence Efficacy - Test 2; details: 15 days after application, 0-100 scale
Experimental: as §2, §3

[6] = tested on: Triticum aestivum (TRZAW); assay: B2 Post-Emergence Efficacy - Test 2; details: 15 days after application, 0-100 scale
Experimental: as §2, §3

[7] = tested on: Abutilon theophrasti (ABUTH); assay: B2 Post-Emergence Efficacy - Test 2; details: 15 days after application, 0-100 scale
Experimental: as §2, §3

Stellaria media (STEME) = assay: B2 Post-Emergence Efficacy - Test 2; details: 15 days after application, 0-100 scale
Experimental: as §2, §3

Beta vulgaris (BEAVA) = assay: B2 Post-Emergence Efficacy - Test 2; details: 15 days after application, 0-100 scale
Experimental: as §2, §3

Hordeum vulgare (HORVW) = assay: B2 Post-Emergence Efficacy - Test 2; details: 15 days after application, 0-100 scale
Experimental: as §2, §3

Lolium perenne (LOLPE) [8] = assay: B2 Post-Emergence Efficacy - Test 2; details: 15 days after application, 0-100 scale
Experimental: as §2, §3

[9] = tested on: Amaranthus retroflexus (AMARE); assay: B2 Post-Emergence Efficacy - Test 2; details: 15 days after application, 0-100 scale
Experimental: as §2, §3

[10] = tested on: Chenopodium album (CHEAL); assay: B2 Post-Emergence Efficacy - Test 2; details: 15 days after application, 0-100 scale
Experimental: as §2, §3

Cc1nn(C)c(=O)c(-c2c(F)ccc(Cl)c2CCc2ccc(F)cc2)c1OC(=O)C(C)C [Compound 1.125, [5-[3-chloro-6-fluoro-2-[2-(4-fluorophenyl)ethyl]phenyl]-1,3-dimethyl-6-oxo-pyridazin-4-yl] 2-methylpropanoate]
percentage damage caused to the plant, SOLNI (Solanum nigrum (SOLNI)): 5 (5=80-100%) | percentage damage caused to the plant, IPOHE [1]: 5 (5=80-100%) | percentage damage caused to the plant, AMARE [2]: 5 (5=80-100%) | percentage damage caused to the plant, LOLPE (Lolium perenne (LOLPE) [3]): 5 (5=80-100%) | percentage damage caused to the plant, SETFA (Setaria faberi (SETFA)): 5 (5=80-100%) | percentage damage caused to the plant, ECHCG [4]: 5 (5=80-100%) | Herbicidal activity BRSNN (Brassica napus (BRSNN); 15 g/Ha): 80 | Herbicidal activity BRSNN (Brassica napus (BRSNN); 30 g/Ha): 80 | Herbicidal activity BRSNN (Brassica napus (BRSNN); 60 g/Ha): 80 | Herbicidal activity BRSNN (Brassica napus (BRSNN); 125 g/Ha): 90 | Herbicidal activity BRSNN (Brassica napus (BRSNN); 250 g/Ha): 90 | Herbicidal activity BRSNN (Brassica napus (BRSNN); 500 g/Ha): 90 | Herbicidal activity SINAR (Sinapis arvensis (SINAR); 15 g/Ha): 60 | Herbicidal activity SINAR (Sinapis arvensis (SINAR); 30 g/Ha): 60 | Herbicidal activity SINAR (Sinapis arvensis (SINAR); 60 g/Ha): 80 | Herbicidal activity SINAR (Sinapis arvensis (SINAR); 125 g/Ha): 90 | Herbicidal activity SINAR (Sinapis arvensis (SINAR); 250 g/Ha): 90 | Herbicidal activity SINAR (Sinapis arvensis (SINAR); 500 g/Ha): 90 | Herbicidal activity VERPE (Veronica persica (VERPE); 15 g/Ha): 70 | Herbicidal activity VERPE (Veronica persica (VERPE); 30 g/Ha): 70 | Herbicidal activity VERPE (Veronica persica (VERPE); 60 g/Ha): 70 | Herbicidal activity VERPE (Veronica persica (VERPE); 125 g/Ha): 80 | Herbicidal activity VERPE (Veronica persica (VERPE); 250 g/Ha): 80 | Herbicidal activity VERPE (Veronica persica (VERPE); 500 g/Ha): 90 | Herbicidal activity KCHSC (Kochia scoparia (KSHSC); 15 g/Ha): 0 | Herbicidal activity KCHSC (Kochia scoparia (KSHSC); 30 g/Ha): 2 | Herbicidal activity KCHSC (Kochia scoparia (KSHSC); 60 g/Ha): 30 | Herbicidal activity KCHSC (Kochia scoparia (KSHSC); 125 g/Ha): 50 | Herbicidal activity KCHSC (Kochia scoparia (KSHSC); 250 g/Ha): 60 | Herbicidal activity KCHSC (Kochia scoparia (KSHSC); 500 g/Ha): 70 | Herbicidal activity IPOHE ([5]; 15 g/Ha): 90 | Herbicidal activity IPOHE ([5]; 30 g/Ha): 100 | Herbicidal activity IPOHE ([5]; 60 g/Ha): 100 | Herbicidal activity IPOHE ([5]; 125 g/Ha): 100 | Herbicidal activity IPOHE ([5]; 250 g/Ha): 100 | Herbicidal activity IPOHE ([5]; 500 g/Ha): 100 | Herbicidal activity TRZAW ([6]; 15 g/Ha): 0 | Herbicidal activity TRZAW ([6]; 30 g/Ha): 10 | Herbicidal activity TRZAW ([6]; 60 g/Ha): 10 | Herbicidal activity TRZAW ([6]; 125 g/Ha): 20 | Herbicidal activity TRZAW ([6]; 250 g/Ha): 30 | Herbicidal activity TRZAW ([6]; 500 g/Ha): 50 | Herbicidal activity ABUTH ([7]; 15 g/Ha): 80 | Herbicidal activity ABUTH ([7]; 30 g/Ha): 90 | Herbicidal activity ABUTH ([7]; 60 g/Ha): 90 | Herbicidal activity ABUTH ([7]; 125 g/Ha): 90 | Herbicidal activity ABUTH ([7]; 250 g/Ha): 100 | Herbicidal activity ABUTH ([7]; 500 g/Ha): 100 | Herbicidal activity STEME (Stellaria media (STEME); 15 g/Ha): 90 | Herbicidal activity STEME (Stellaria media (STEME); 30 g/Ha): 90 | Herbicidal activity STEME (Stellaria media (STEME); 60 g/Ha): 90 | Herbicidal activity STEME (Stellaria media (STEME); 125 g/Ha): 90 | Herbicidal activity STEME (Stellaria media (STEME); 250 g/Ha): 90 | Herbicidal activity STEME (Stellaria media (STEME); 500 g/Ha): 90 | Herbicidal activity BEAVA (Beta vulgaris (BEAVA); 15 g/Ha): 70 | Herbicidal activity BEAVA (Beta vulgaris (BEAVA); 30 g/Ha): 60 | Herbicidal activity BEAVA (Beta vulgaris (BEAVA); 60 g/Ha): 60 | Herbicidal activity BEAVA (Beta vulgaris (BEAVA); 125 g/Ha): 70 | Herbicidal activity BEAVA (Beta vulgaris (BEAVA); 250 g/Ha): 70 | Herbicidal activity BEAVA (Beta vulgaris (BEAVA); 500 g/Ha): 70 | Herbicidal activity HORVW (Hordeum vulgare (HORVW); 15 g/Ha): 0 | Herbicidal activity HORVW (Hordeum vulgare (HORVW); 30 g/Ha): 0 | Herbicidal activity HORVW (Hordeum vulgare (HORVW); 60 g/Ha): 10 | Herbicidal activity HORVW (Hordeum vulgare (HORVW); 125 g/Ha): 10 | Herbicidal activity HORVW (Hordeum vulgare (HORVW); 250 g/Ha): 10 | Herbicidal activity HORVW (Hordeum vulgare (HORVW); 500 g/Ha): 10 | Herbicidal activity LOLPE (Lolium perenne (LOLPE) [8]; 15 g/Ha): 40 | Herbicidal activity LOLPE (Lolium perenne (LOLPE) [8]; 30 g/Ha): 50 | Herbicidal activity LOLPE (Lolium perenne (LOLPE) [8]; 60 g/Ha): 60 | Herbicidal activity LOLPE (Lolium perenne (LOLPE) [8]; 125 g/Ha): 70 | Herbicidal activity LOLPE (Lolium perenne (LOLPE) [8]; 250 g/Ha): 80 | Herbicidal activity LOLPE (Lolium perenne (LOLPE) [8]; 500 g/Ha): 90 | Herbicidal activity AMARE ([9]; 15 g/Ha): 80 | Herbicidal activity AMARE ([9]; 30 g/Ha): 90 | Herbicidal activity AMARE ([9]; 60 g/Ha): 90 | Herbicidal activity AMARE ([9]; 125 g/Ha): 100 | Herbicidal activity AMARE ([9]; 250 g/Ha): 100 | Herbicidal activity AMARE ([9]; 500 g/Ha): 100 | Herbicidal activity CHEAL ([10]; 15 g/Ha): 90 | Herbicidal activity CHEAL ([10]; 30 g/Ha): 90 | Herbicidal activity CHEAL ([10]; 60 g/Ha): 90 | Herbicidal activity CHEAL ([10]; 125 g/Ha): 90 | Herbicidal activity CHEAL ([10]; 250 g/Ha): 90 | Herbicidal activity CHEAL ([10]; 500 g/Ha): 90
